Measurements from US8563562B2, “Compounds having antiviral properties” (priority 2008, dated 2013).

How the values were obtained:
Format in all cases: cell-based
[1] = system: HIV variant E92Q/N155H integrase; assay: PhenoScreen (Phenosense) assay, single-round luciferase pseudotyped HIV; conditions: Human immunodeficiency virus 1, read-out: Activity, Phenosense assay, E92Q/N155H
Description: (§1) Monogram Bioscience' PhenoScreen assay allows the evaluation of integrase inhibitors for activity against a variety of HIV variants. The assay uses virus generated from 2 DNA constructs; one containing the HIV LTR, gag and pol regions, as well as a luciferase reporter gene in place of the viral envelope genes, and a second DNA construct containing the amphotrophic murine leukemia virus (A-MLV) envelope gene required to pseudotype virions and render them capable of entry into a target cell. Viruses generated using these constructs by transfection into a producer cell line such as 293T are capable of one-round of infection only. Successful integration events are directly proportional to the levels of luciferase expression 48 h after infection.
(§2) The viral variants chosen by the present inventors to screen integration inhibitors consist of mutations within the viral integrase enzyme known to confer resistance to a number of known integration inhibitors published in the literature. In particular, the viral variants containing the Q148H/G140S double mutation in integrase, and the N155H/E92Q double mutation in integrase, represent two of the more common viruses identified to arise in patients that are failing treatment with Isentress (Raltegravir, MK-0518).

HIV WT integrase = assay: as above; conditions: Human immunodeficiency virus 1, read-out: Activity, Phenosense assay, WT
Description: as §1, §2

[2] = system: HIV variant G140S/Q148H integrase; assay: as above; conditions: Human immunodeficiency virus 1, read-out: Activity, Phenosense assay, G140S Q148H
Description: as §1, §2

[3] = system: HIV variant Y143R integrase; assay: as above; conditions: Human immunodeficiency virus 1, read-out: Activity, Phenosense assay, Y143R
Description: as §1, §2

[4] = system: HIV variant T661/S153Y integrase; assay: as above; conditions: Human immunodeficiency virus 1, read-out: Activity, Phenosense assay, T661 S153Y
Description: as §1, §2

[5] = system: HIV variant T125K/F121Y integrase; assay: as above; conditions: Human immunodeficiency virus 1, read-out: Activity, Phenosense assay, T125K F121Y
Description: as §1, §2

[6] = system: HIV-1 reporter virus, Q148H/G140S (QHGS) integrase; assay: Luciferase reporter virus infectivity assay in 293T cells; conditions: Human immunodeficiency virus 1, HEK-293T, 48 h, read-out: Luciferase assay EC50, QHGS
Description: (§3) Infectivity assays using reporter viruses derived from lentiviral vectors capable of a single round of infection were used to determine the activity (EC50) of compounds. The DNA used to generate viruses for infection was the full-length HIV-1 genome which had been envelope-deleted. In addition, a reporter gene (the firefly luciferase gene from Photinus pyralis) was cloned into the nef region of the HIV backbone for ease of assay readout. […]. Culture supernatants containing VSV-G pseudotyped virions were harvested 64 h post transfection, clarified by centrifugation to remove cell debris, and frozen at −70° C. until use.
(§4) HIV integrase was mutated within a shuttle vector (pGEM) containing the majority of the HIV-1 gag and pol sequence using site-directed mutagenesis to generate sequences that are known to confer resistance to published integrase inhibitors. These include but are not limited to mutations such as Q148H/G140S (in table #QHGS), N155H/E92Q (in table #NHEQ), F121Y/T124K (in table FYTK), Y143R (in table #Y143R) and the triple mutant Q148K/G140A/E138A. (in table#QKGAEA). The mutated integrase coding region within the shuttle vector was sequence verified, and then exchanged for the wild-type (WT) coding sequence in the reporter virus DNA backbone.
(§5) 293T cells were plated out at 12000 cells per well in CellView 96-well cell culture plates (Invitrogen) 16 h prior to compound addition. Compounds were preincubated with cells for 4 h at 37° C. prior to the addition of virus sufficient to generate approximately 10000 Luciferase light units (as measured by the Victor Wallace luminometer) upon assaying using the Bright-Glo™ reagent (Promega) according to the manufacturer's instructions at 48 h post infection.

[7] = system: HIV-1 reporter virus, Q148K/G140A/E138A (QKGAEA) integrase; assay: as above; conditions: Human immunodeficiency virus 1, HEK-293T, 48 h, read-out: Luciferase assay EC50, QKGAEA
Description: as §3, §4, §5

[8] = system: HIV-1 reporter virus, wild-type (WT) integrase; assay: as above; conditions: Human immunodeficiency virus 1, HEK-293T, 48 h, read-out: Luciferase assay EC50, WT
Description: as §3, §4, §5

[9] = system: HIV-1 reporter virus, N155H/E92Q (NHEQ) integrase; assay: as above; conditions: Human immunodeficiency virus 1, HEK-293T, 48 h, read-out: Luciferase assay EC50, NHEQ
Description: as §3, §4, §5

[10] = system: HIV-1 reporter virus, Y143R integrase; assay: as above; conditions: Human immunodeficiency virus 1, HEK-293T, 48 h, read-out: Luciferase assay EC50, Y143R
Description: as §3, §4, §5

| SMILES | EC50 [6] [nM] | EC50 [8] [nM] | EC50 [9] [nM] | other results |
| --- | --- | --- | --- | --- |
| O=C(NCc1ccc(Cl)c(Cl)c1)c1nc2ccc(N3CCOCC3)cn2c(=O)c1O [Comparative example 1, reference compound] | – | – | – | EC50 [1]: > 10000 nM; EC50 (HIV WT integrase): 1 to 100 nM; EC50 [2]: > 10000 nM |
| Cc1ccc2nc(-c3ncc(Cc4ccc(F)cc4)s3)c(O)c(=O)n2c1 [Comparative example 2, reference compound] | – | – | – | EC50 [3]: 100 to 1000 nM; EC50 [1]: 1000 to 10000 nM; EC50 (HIV WT integrase): 100 to 1000 nM; EC50 [4]: 100 to 1000 nM; EC50 [5]: 100 to 1000 nM; EC50 [2]: 1000 to 10000 nM |
| O=C(NCc1ccc(F)cc1)c1nc2c(I)cc(N3CCOCC3)cn2c(=O)c1O [Comparative example 3, reference compound] | – | – | – | EC50 [3]: 1 to 100 nM; EC50 [1]: 1 to 100 nM; EC50 (HIV WT integrase): 1 to 100 nM; EC50 [4]: 1 to 100 nM; EC50 [5]: 1 to 100 nM; EC50 [2]: > 10000 nM |
| O=c1c(O)c(-c2ncc(Cc3ccc(F)cc3)[nH]2)nc2c(Br)cc(N3CCOCC3)cn12 [Example 47, 2-(9-Bromo-3-hydroxy-7-morpholin-4-yl-4-oxo-4H-pyrido[1,2-a]pyrimidin-2-yl)-5-(4-fluoro-benzyl)-1H-imidazol-1-ium chloride] | 100 to 1000 | – | – | – |
| CC(=O)c1cc(N2CCOCC2)cn2c(=O)c(O)c(-c3ncc(Cc4ccc(F)cc4)s3)nc12 [Example 53, 9-Acetyl-2-[5-(4-fluoro-benzyl)-thiazol-2-yl]-3-hydroxy-7-morpholin-4-yl-pyrido[1,2-a]pyrimidin-4-one] | 100 to 1000 | – | – | – |
| CC(C)N1CCN(c2cc(N3CCOCC3)cn3c(=O)c(O)c(-c4ncc(Cc5ccc(F)cc5)s4)nc23)C1=O [Example 56, 2-[5-(4-Fluoro-benzyl)-thiazol-2-yl]-3-hydroxy-9-(3-isopropyl-2-oxo-imidazolidin-1-yl)-7-morpholin-4-yl-pyrido[1,2-a]pyrimidin-4-one] | 1 to 100 | 1 to 100 | 1 to 100 | EC50 [7]: 1 to 100 nM; EC50 [10]: 1 to 100 nM |
| CN1CCN(c2cc(N3CCOCC3)cn3c(=O)c(O)c(-c4ncc(Cc5ccc(F)c(Cl)c5)s4)nc23)C1=O [Example 60, 2-[5-(3-Chloro-4-fluoro-benzyl)-thiazol-2-yl]-3-hydroxy-9-(3-methyl-2-oxo-imidazolidin-1-yl)-7-morpholin-4-yl-pyrido[1,2-a]pyrimidin-4-one] | 1 to 100 | 1 to 100 | 1 to 100 | EC50 [7]: 1 to 100 nM; EC50 [10]: 1 to 100 nM |
| CN1CCN(c2cc(N(C)C)cn3c(=O)c(O)c(-c4ncc(Cc5ccc(F)cc5)s4)nc23)C1=O [Example 70, 7-Dimethylamino-2-[5-(4-fluoro-benzyl)-thiazol-2-yl]-3-hydroxy-9-(3-methyl-2-oxo-imidazolidin-1-yl)-pyrido[1,2-a]pyrimidin-4-one] | 1 to 100 | 1 to 100 | 1 to 100 | – |
| CN1CCN(c2cc(N(C)C)cn3c(=O)c(O)c(-c4ncc(Cc5ccc(F)cc5)[nH]4)nc23)C1=O [Example 72, 2-(7-(dimethylamino)-3-hydroxy-9-(3-methyl-2-oxoimidazolidin-1-yl)-4-oxo-4H-pyrido[1,2-a]pyrimidin-2-yl)-5-(4-fluorobenzyl)-1H-imidazol-3-ium chloride] | 100 to 1000 | – | – | – |
| CN1CCN(c2cc(N3CCOCC3)cn3c(=O)c(O)c(-c4ncc(Cc5ccc(F)c(Cl)c5)[nH]4)nc23)C1=O [Example 77, 5-(3-chloro-4-fluorobenzyl)-2-(3-hydroxy-9-(3-methyl-2-oxoimidazolidin-1-yl)-7-morpholino-4-oxo-4H-pyrido[1,2-a]pyrimidin-2-yl)-1H-imidazol-3-ium chloride] | 100 to 1000 | 1 to 100 | 1 to 100 | – |
| CN1CCN(c2cc(N3CCOCC3)cn3c(=O)c(O)c(-c4ncc(Cc5ccc(F)c(F)c5)[nH]4)nc23)C1=O [Example 79, 5-(3,4-difluorobenzyl)-2-(3-hydroxy-9-(3-methyl-2-oxoimidazolidin-1-yl)-7-morpholino-4-oxo-4H-pyrido[1,2-a]pyrimidin-2-yl)-1H-imidazol-3-ium chloride] | 100 to 1000 | 1 to 100 | 1 to 100 | – |
| O=C1CCCN1c1cc(N2CCOCC2)cn2c(=O)c(O)c(-c3ncc(Cc4ccc(F)cc4)[nH]3)nc12 [Example 83, 5-(4-fluorobenzyl)-2-(3-hydroxy-7-morpholino-4-oxo-9-(2-oxopyrrolidin-1-yl)-4H-pyrido[1,2-a]pyrimidin-2-yl)-1H-imidazol-3-ium chloride] | 100 to 1000 | – | – | – |
| O=C1OCCN1c1cc(N2CCOCC2)cn2c(=O)c(O)c(-c3ncc(Cc4ccc(F)cc4)[nH]3)nc12 [Example 87, 5-(4-fluorobenzyl)-2-(3-hydroxy-7-morpholino-4-oxo-9-(2-oxooxazolidin-3-yl)-4H-pyrido[1,2-a]pyrimidin-2-yl)-1H-imidazol-3-ium chloride] | 100 to 1000 | – | – | – |
| CN1CCN(c2cc(N3CCOCC3)cn3c(=O)c(O)c(-c4ncc(Cc5ccc(F)cc5)[nH]4)nc23)S1(=O)=O [Example 91, 4-(4-Fluoro-benzyl)-2-[3-hydroxy-9-(5-methyl-1,1-dioxo-116-[1,2,5]thiadiazolidin-2-yl)-7-morpholin-4-yl-4-oxo-4H-pyrido[1,2-a]pyrimidin-2-yl]-3H-imidazol-1-ium; chloride] | 1 to 100 | 1 to 100 | 1 to 100 | – |
| CN(c1cc(N2CCOCC2)cn2c(=O)c(O)c(-c3ncc(Cc4ccc(F)cc4)[nH]3)nc12)S(C)(=O)=O [Example 95, 5-(4-fluorobenzyl)-2-(3-hydroxy-9-(N-methylmethylsulfonamido)-7-morpholino-4-oxo-4H-pyrido[1,2-a]pyrimidin-2-yl)-1H-imidazol-3-ium chloride] | 100 to 1000 | 1 to 100 | 1 to 100 | – |
| O=C1CCCN1c1cc(N2CCOCC2)cn2c(=O)c(O)c(-c3ncc(Cc4ccc(F)cc4)s3)nc12 [Example 97, 2-[5-(4-Fluoro-benzyl)-thiazol-2-yl]-3-hydroxy-7-morpholin-4-yl-9-(2-oxo-pyrrolidin-1-yl)-pyrido[1,2-a]pyrimidin-4-one] | 100 to 1000 | – | – | – |
| O=c1c(O)c(-c2ncc(Cc3ccc(Cl)c(Cl)c3)s2)nc2c(N3CCCS3(=O)=O)cc(N3CCOCC3)cn12 [Example 108, 2-[5-(3,4-Dichloro-benzyl)-thiazol-2-yl]-9-(1,1-dioxo-116-isothiazolidin-2-yl)-3-hydroxy-7-morpholin-4-yl-pyrido[1,2-a]pyrimidin-4-one] | 100 to 1000 | 1 to 100 | – | – |
| CN1CCN(c2cc(N3CCOCC3)cn3c(=O)c(O)c(-c4ncc(Cc5ccc(F)cc5)[nH]4)nc23)C1=O [Example 109, 5-(4-Fluoro-benzyl)-2-[3-hydroxy-9-(3-methyl-2-oxo-imidazolidin-1-yl)-7-morpholin-4-yl-4-oxo-4H-pyrido[1,2-a]pyrimidin-2-yl]-1H-imidazol-1-ium; chloride] | 100 to 1000 | 1 to 100 | 100 to 1000 | – |
